Laboratory results: ChEMBL document CHEMBL1143305, “SAR and biological evaluation of analogues of a small molecule histone deacetylase inhibitor N-(2-aminophenyl)-4-((4-(pyridin-3-yl)pyrimidin-2-ylamino)methyl)benzamide (MGCD0103)” (Bioorg Med Chem Lett, 2009)
Calls of active or inactive are those of the source. The calls are words filed in the database; no cut-off is given here.

How the values were obtained:
[1] = test system: HCT-116; assay: cells; details: Homo sapiens
Description: (§1) Antiproliferative activity against human HCT116 cells by MTT assay

[2] = test system: T-24; assay: Induction of histone H4 hyperacetylation in human T24 cells after 16 hrs by immunoblotting; type: functional, cell-based; details: for EC50: T-24, 16 h
[3] = test system: HMEC; assay: Antiproliferative activity against HMEC by MTT assay; type: cell-based; details: Homo sapiens
[4] = test system: HCT-116; assay: Induction of p21WAF1/CIP1 expression in human HCT116 cells assessed as […] after 16 hrs by luciferase assay; type: functional, cell-based; details: for EC50: HCT-116, 16 h
[5] = test system: HMEC; assay: Selectivity ratio of IC50 for HMEC to IC50 for human HCT116 cells
[6] = molecular target: Histone deacetylase 1 (Homo sapiens, UniProt Q13547); assay: Inhibition of human recombinant HDAC1
[7] = test system: HCT-116; assay: Induction of apoptosis in human HCT116 cells; type: functional, cell-based
[8] = test system: HCT-116; details: Homo sapiens
Description: as §1

Histone deacetylase 1, sequence (Q13547 whole entry): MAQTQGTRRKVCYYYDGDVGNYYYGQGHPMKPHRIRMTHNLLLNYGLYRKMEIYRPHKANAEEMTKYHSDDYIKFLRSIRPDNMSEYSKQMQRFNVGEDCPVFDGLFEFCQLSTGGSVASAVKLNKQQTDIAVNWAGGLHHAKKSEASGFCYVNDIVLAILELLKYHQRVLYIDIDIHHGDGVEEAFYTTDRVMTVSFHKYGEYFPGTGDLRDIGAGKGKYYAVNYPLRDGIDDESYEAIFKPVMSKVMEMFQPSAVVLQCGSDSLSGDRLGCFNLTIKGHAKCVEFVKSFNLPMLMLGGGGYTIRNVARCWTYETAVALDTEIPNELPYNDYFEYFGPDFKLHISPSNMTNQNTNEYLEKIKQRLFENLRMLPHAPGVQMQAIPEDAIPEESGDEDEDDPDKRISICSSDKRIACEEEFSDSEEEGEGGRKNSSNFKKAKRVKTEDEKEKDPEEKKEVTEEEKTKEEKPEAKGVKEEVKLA

IC50 [1] [nM]	EC50 [2] [nM]	EC50 [4] [nM]	IC50 [6] [nM]	Compound	IC50 [3] [µM]	Ratio IC50 [5]	Activity [7]	Activity [8]	Activity [2]	Activity [4]
< 50	< 1000	500	70	Nc1ccccc1NC(=O)c1ccc(CNc2cc(-c3cccnc3)ncn2)cc1	42	>15	Active			
100	2000	600	230	CC(C)(O)c1ccc(-c2ccnc(NCc3ccc(C(=O)Nc4ccccc4N)cc3)n2)cn1	38	>20	Active			
400	< 1000	600	200	Nc1ccccc1NC(=O)c1ccc(CNc2ccnc(-c3cccnc3)n2)cc1	11		Active			
100	1000	500	90	Nc1ccccc1NC(=O)c1ccc(CNc2nccc(-c3ccc(CN4CCOCC4)cc3)n2)cc1	27	>30				
	< 1000	500	140	Nc1ccccc1NC(=O)c1ccc(CNc2nccc(-c3nccs3)n2)cc1	14	>30		inactive		
300	1000	400	140	Nc1ccccc1NC(=O)c1ccc(CNc2nccc(-c3cccc(OCCN4CCOCC4)c3)n2)cc1	41	>30				
70	3000	300	70	Nc1ccccc1NC(=O)c1ccc(CNc2nccc(-c3ccsc3)n2)cc1	7	>30				
2000			1200	Nc1ccccc1NC(=O)/C=C/c1ccc(CNc2nccc(-c3cccnc3)n2)cc1						
25000			> 20000	Nc1ccccc1C(=O)Nc1ccc(CNc2nccc(-c3cccnc3)n2)cc1						
300	< 1000	600	90	Nc1ccccc1NC(=O)c1ccc(CNc2cccc(-c3cccnc3)c2)cc1	5	>15	Active			
300	< 1000	600		Nc1ccccc1NC(=O)c1ccc(CNc2nccc(-c3cccnc3)n2)cc1 [MOCETINOSTAT]	21					
600	1000	600	180	Nc1ccccc1NC(=O)c1ccc(CNc2cccc(-c3cccnc3)n2)cc1	> 50		Active			
2000			2000	Nc1ccccc1NC(=O)c1ccc(Nc2nccc(-c3cccnc3)n2)cc1						
100	1000	1000	250	COCOC(C)(C)c1ccc(-c2ccnc(NCc3ccc(C(=O)Nc4ccccc4N)cc3)n2)cn1	49	>20	Active			
200		200	80	CN1CCN(c2ccc(-c3ccnc(NCc4ccc(C(=O)Nc5ccccc5N)cc4)n3)cn2)CC1	5	>20	Active		inactive	
43000			> 20000	Nc1ccccc1NC(=O)c1cccc(CNc2nccc(-c3cccnc3)n2)c1						

IC50 [1] [nM]	EC50 [2] [nM]	EC50 [4] [nM]	IC50 [6] [nM]	Compound	IC50 [3] [µM]	Ratio IC50 [5]	Activity [7]	Activity [8]	Activity [2]	Activity [4]
200	1000	200	170	Nc1cc(-c2cccnc2)nc(NCc2ccc(C(=O)Nc3ccccc3N)cc2)n1	14					
800	1000		210	Nc1ccccc1NC(=O)c1ccc(CNc2nccc(-c3cc(CO)no3)n2)cc1	> 50	>30				inactive
300	1000	300	90	CSc1ccc(-c2ccnc(NCc3ccc(C(=O)Nc4ccccc4N)cc3)n2)cn1	6	>20	Active			
< 50	< 1000	400	50	Nc1ccccc1NC(=O)c1ccc(CNc2nccc(-c3ccc(N4CCOCC4)nc3)n2)cc1	5	>20	Active			
1000		2000	250	Nc1ccccc1NC(=O)c1ccc(CNc2nccc(-c3ccc(C(=O)N4CCOCC4)nc3)n2)cc1	37	>20	Active		inactive	
			130	Nc1ccccc1NC(=O)c1ccc(/C=C/CNc2nccc(-c3cccnc3)n2)cc1						
> 50000			> 25000	O=C(Nc1ccccc1)c1ccc(CNc2nccc(-c3cccnc3)n2)cc1						
300	< 1000		130	CN(C)CCOc1cccc(-c2ccnc(NCc3ccc(C(=O)Nc4ccccc4N)cc3)n2)c1	11	>30				inactive
100	< 1000	100	80	Nc1ccccc1NC(=O)c1ccc(CNc2nccc(-c3ccc(OCCN4CCOCC4)cc3)n2)cc1	8	>30				
90	< 1000	100	120	CN(C)CCOc1ccc(-c2ccnc(NCc3ccc(C(=O)Nc4ccccc4N)cc3)n2)cc1	10	>30				
100	1000	600	250	CSc1nc(NCc2ccc(C(=O)Nc3ccccc3N)cc2)cc(-c2cccnc2)n1	13					
300	2000	900	420	CN(C)C(=O)c1ccc(-c2ccnc(NCc3ccc(C(=O)Nc4ccccc4N)cc3)n2)cn1	> 50	>20	Active			
300	1000	600	190	Nc1ccccc1NC(=O)c1ccc(CNc2nccc(-c3cnccn3)n2)cc1	23	>30				
400	1000	700	160	N#Cc1ccc(-c2ccnc(NCc3ccc(C(=O)Nc4ccccc4N)cc3)n2)cn1	> 50	>20	Active			
300	1000	400	110	Nc1ccccc1NC(=O)c1ccc(CNc2cncc(-c3cccnc3)n2)cc1	16	>15	Active			
